Test results published in patent publication US20050014692A1, “Lactate dehydrogenase as a novel target and reagent for diabetes therapy” (priority 2003, published 2005).
“Also recorded” adds a separate entry of the source.

How the values were obtained:
[1] = test system: glycerol kinase overexpressing 832/13 cells; assay: 13C studies in glycerol kinase overexpressing 832/13 cells (insulin secretion, lactate output, pyruvate cycling); format: cell-based, rat
Text: FIG. 9 depicts the effect of glycerol kinase overexpression in 832/13 cells on insulin excretion, lactate output and pyruvate cycling.
In contrast, pyruvate cycling and lactate output are higher in response to glycerol than to glucose.

[2] = test system: 832/13 cells; assay: Insulin secretion assay in 832/13 cells (radioimmunoassay); format: cell-based, rat
Method: FIG. 3. Stimulation of insulin secretion by lactate, pyruvate, and glucose in 832/13 cells. Confluent, insulin secreting 832/13 cells were stimulated for 2 hours with various concentrations of secretagogues as indicated in the figure, and IS was determined by radioimmunoassay of the cell supernatant.
FIG. 4. The effect of rat LDHA overexpression on glucose, pyruvate, and lactate-stimulated insulin secretion in 832/13 cells. 832/13 cells were treated with adenovirus expressing rat LDHA (AdLDH) and beta-galactosidase (Adbetagal), respectively. The LDH activity in cell extracts was monitored by the decrease in absorbance at 340 nm (insert) and the insulin response to glucose, pyruvate, and lactate was examined by radioimmunoassay.
FIG. 7B. The effect of the LDH inhibitor oxamate on insulin secretion in 832/13 cells. Cells were incubated with ^13C labeled glucose for 4 hours in the presence or absence of oxamate.
FIG. 14. The effect of mitLDHA and LDHA on fuel-mediated IS in the 832/13 cells. The inset depicts the activity of LDH for each experiment.
The cell line 832/13 was created from INS-1 insulinoma β-cells as described earlier (Hohmeier et al. (2000) Diabetes 49:424430). Cells were cultured in RPMI-1640 medium containing 11 mM glucose supplemented with 10% fetal bovine serum, 10 mM HEPES, 2 mM glutamine, 1 mM sodium pyruvate and […] β-mercaptoethanol. Media was routinely changed every second day. […]
Insulin secretion was assayed in HEPES buffered saline solution (HBSS) (114 mM NaCl, 4.7 mM KCl, 1.2 mM KH2PO4, 1.16 mM MgSO4, 20 mM HEPES, 2.5 mM CaCl2, 25.5 mM NaHCO3, pH 7.2 containing 0.2% bovine serum albumin (essentially fatty acid free). Cells were washed in 1 ml of HBSS, preincubated in 1.5 ml of HBSS for 2 hour prior to a 2 hour incubation in the presence of secretagogues as indicated in the figures. The insulin levels were determined by radioimmunoassay with the Coat-A-Count kit (ICN Pharmaceuticals, Costa Mesa, Calif.) and lactate output was determined with a Lactate Reagent kit (Sigma, St. Louis, Mo.) according to protocols outlined by the manufacturer.

[3] = test system: cell lines derived from rat INS-1 cells; details: glucose-responsive clones; in direct correlation with changes in pyruvate cycling; cited from earlier work

In the case of `OCC(O)CO` [glycerol], the “lactate output, compared with glucose” value [1] is reported as “higher”, the “pyruvate cycling, compared with glucose” value [1] is reported as “higher” and the “stimulation of insulin secretion, compared with glucose” value [1] is reported as “to the same extent”.

In the case of `CC(O)C(=O)O` (centres unmarked) [lactate], the “stimulation of insulin secretion as secretagogue” value (shortened to “stimulation … as secretagogue”) ([2]; 832/13 cells overexpressing LDHA (AdLDH treated)) is reported as “as effective as the other two fuels; also recorded: as effective as glucose or pyruvate”, the “stimulation … as secretagogue” value ([2]; 832/13 cells without LDHA overexpression, 2 hours, relative to glucose or pyruvate) is reported as “poor secretagogue; also recorded: only a weak stimulator” and the “stimulation … as secretagogue” value ([2]; 832/13 cells without LDHA overexpression, 2 hours, relative to glucose or pyruvate, listed as Lactate) is reported as “poor secretagogue”.

For `O=C(O)Cc1ccccc1` [phenylacetic acid], the “effect on glucose-stimulated IS” value [3] is listed as “impaired”.

For malate in the form of methyl ester, the “effect on glucose-stimulated IS” value [3] is given as “potentiated”.
